Test: Film formation test
Type: physicochemical
Conditions: assessed visually; for Clear film / Notes (film-forming classification): 15% by weight solution in water, dried at 45° C. for 4 hours; for Structure formed after drying (film-forming property): 15% solution dried 4 hours at 45° C., statement in description
Description: In various embodiments, to determine the film-forming property, 30.0 g of a 15% strength by weight solution of the sugar or sugar alcohol in water are first prepared at 23° C. This solution is poured out onto glass plates with an indentation (dimension: 20 cm×6.5 cm, indentation 0.3 cm) and dried for 4 hours at 45° C. and then assessed visually. Measurement can take place in ambient air. The ambient air here has a relative humidity of about 40% at 23° C. Drying can take place for example, on the heating plate of a film-drawing instrument. A suitable film-drawing instrument is for example a commercial instrument such as the COATMASTER 509 MC.
Products which are present after the drying operation as a clear film or covering are referred to as “film-forming” If crystals are visible and the mass appears powdery, the substances are classified as “non-film-forming”
To determine the film-forming property, firstly, at 23° C., 30.0 g of a 15% strength by weight solution of the sugar or sugar alcohol in water were prepared. This solution was poured onto glass plates with an indentation (dimension: 20 cm×6.5 cm, indentation 0.3 cm) and dried at 45° C. for 4 hours and then assessed visually. […] Drying was carried out on a heating plate of the film-drawing instrument COATMASTER 509 MC (Erichsen).

Clear film	Notes (film-forming classification)	Structure formed after drying (film-forming property)	Compound
No	Crystals; non-film-forming	crystals or a powdery structure	OC[C@@H](O)[C@H](O)[C@@H](O)CO [Xylitol]
–	–	clear film/covering	OC[C@H]1O[C@@H](O[C@H]2[C@H](O)[C@@H](O)C(O)O[C@@H]2CO)[C@H](O)[C@@H](O)[C@H]1O (stereo partly drawn) [lactose]
No	Crystals; non-film-forming	crystals or a powdery structure	OC[C@@H](O)[C@@H](O)CO [Erythritol]
No	Crystals; non-film-forming	crystals or a powdery structure	OC[C@@H](O)[C@@H](O)[C@H](O)[C@H](O)CO [Mannitol]
Yes	Film-forming	clear film/covering	OC[C@@H](O)[C@@H](O[C@H]1O[C@H](CO)[C@@H](O)[C@H](O)[C@H]1O)[C@H](O)[C@@H](O)CO [Maltitol]
–	–	clear film/covering	OC[C@H]1O[C@@](CO)(O[C@H]2O[C@H](CO)[C@@H](O)[C@H](O)[C@H]2O)[C@@H](O)[C@@H]1O [sucrose]
Yes	Film-forming	clear film/covering	OC[C@@H](O)[C@@H](O[C@@H]1O[C@H](CO)[C@H](O)[C@H](O)[C@H]1O)[C@H](O)[C@@H](O)CO [Lactitol]
–	–	clear film/covering	OC[C@H]1O[C@H](O[C@H]2O[C@H](CO)[C@@H](O)[C@H](O)[C@H]2O)[C@H](O)[C@@H](O)[C@@H]1O [trehalose]
Yes	Film-forming	clear film/covering	Palatinit
Yes	Film-forming	clear film/covering	OC[C@@H](O)[C@@H](O)[C@H](O)[C@@H](O)CO [Sorbitol]
